{"source": "PubChem BioAssay AID434954", "about": "(Broad Institute, 2010)", "biological_target": "Glycogen synthase kinase-3 beta (Homo sapiens) (UniProt P49841)", "sequence (P49841 whole entry, looked up)": "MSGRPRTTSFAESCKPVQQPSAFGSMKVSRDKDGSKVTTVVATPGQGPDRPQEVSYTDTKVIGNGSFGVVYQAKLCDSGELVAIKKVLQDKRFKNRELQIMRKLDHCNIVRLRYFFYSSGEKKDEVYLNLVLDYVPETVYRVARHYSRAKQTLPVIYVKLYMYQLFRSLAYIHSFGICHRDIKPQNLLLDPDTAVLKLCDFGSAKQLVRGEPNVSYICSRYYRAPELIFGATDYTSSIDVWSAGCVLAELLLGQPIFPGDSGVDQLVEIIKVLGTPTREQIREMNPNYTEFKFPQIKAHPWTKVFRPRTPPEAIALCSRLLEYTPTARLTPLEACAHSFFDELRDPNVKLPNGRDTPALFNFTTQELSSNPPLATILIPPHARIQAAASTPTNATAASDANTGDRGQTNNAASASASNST", "assay": "GSK3beta kinase inhibitor potency, dose response, biochemical, luminescence, cell-free homogeneous, retest (AID 434954)", "details": "recombinant GSK3beta, ADP-Glo luminescence, 60 min", "note": "Activity calls are given as the source filed them.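 Rule for the calls: active = IC50 at or below a set limit above the highest tested dose; inconclusive = flat curve with 30 to 70% inhibition, or poor fit; inactive = the rest.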", "data": [{"smiles": "CCc1ccc(/C=N/Nc2ncnc3nc[nH]c23)cc1", "values": [{"measurement": "IC50", "value": 26.6, "unit": "µM"}]}, {"smiles": "Clc1ccc(/C=N/Nc2ncnc3nc[nH]c23)cc1", "values": [{"measurement": "IC50", "value": 20.4, "unit": "µM"}]}, {"smiles": "N#CC(C#N)=C1NC(N)=C(C#N)C(c2ccccc2)=C1C#N", "values": [{"measurement": "IC50", "value": 19.2, "unit": "µM"}]}, {"smiles": "O=C(O)CCn1cc(/C=N/O)c(-c2cccc([N+](=O)[O-])c2)n1", "values": [{"measurement": "IC50", "value": 7.38, "unit": "µM"}]}, {"smiles": "Cc1c(C=Nc2ccc(S(=O)(=O)CCO)cc2)c(O)[nH]c(=O)c1C#N", "values": [{"measurement": "IC50", "value": "> 30 µM (inactive)"}]}, {"smiles": "N=C(N)N=Nc1c(O)[nH]c2ccc(Br)cc12", "values": [{"measurement": "IC50", "value": 31.4, "unit": "µM"}]}, {"smiles": "CCOc1cc(C2C3=C(CC(C)(C)CC3=O)Nc3n[nH]c(C)c32)ccc1O", "note": "(stereo unspecified)", "values": [{"measurement": "IC50", "value": 3.32, "unit": "µM"}]}, {"smiles": "CCN(CC)CCN1C(=O)C(=O)/C(=C(/O)c2ccc(S(=O)(=O)N3CCOCC3)cc2)C1c1ccccc1", "note": "(stereo unspecified)", "values": [{"measurement": "IC50", "value": "> 30 µM (inactive)"}]}, {"smiles": "O=C(O)c1cccc(-c2ccc(/C=N/Nc3ccc([N+](=O)[O-])cc3)o2)c1", "values": [{"measurement": "IC50", "value": "> 30 µM (inactive)"}]}, {"smiles": "O=C1C(=O)N(c2ccccn2)C(c2ccc(Br)cc2)/C1=C(/O)c1ccc(Br)cc1", "note": "(stereo unspecified)", "values": [{"measurement": "IC50", "value": "> 30 µM (inactive)"}]}, {"smiles": "COc1ccc(-c2nn(-c3ccccc3)cc2/C=N/O)cc1OC", "values": [{"measurement": "IC50", "value": 3.99, "unit": "µM"}]}, {"smiles": "COc1cccc(/C=N/Nc2cc(Cl)nc(C)n2)c1O", "values": [{"measurement": "IC50", "value": "> 30 µM (inactive)"}]}, {"smiles": "Cc1[nH]nc2c1C(c1cccc(O)c1)C1=C(CC(C)(C)CC1=O)N2", "note": "(stereo unspecified)", "values": [{"measurement": "IC50", "value": 0.421, "unit": "µM"}]}, {"smiles": "CCOC(=O)/C(C(=O)Nc1ccc(Cl)cc1Cl)=C1/NC(C)(C)Cc2ccccc21", "values": [{"measurement": "IC50", "value": "> 30 µM (inactive)"}]}, {"smiles": "COc1ccc(COC(=O)C2=C(C)NC(=O)NC2c2ccc(O)c(OC)c2)cc1", "note": "(stereo unspecified)", "values": [{"measurement": "IC50", "value": "> 30 µM (inactive)"}]}, {"smiles": "O=C(Nc1cccc2c1C(=O)NC2=O)c1cccc(N2C(=O)CCC2=O)c1", "values": [{"measurement": "IC50", "value": "> 30 µM (inactive)"}]}, {"smiles": "CC1=C(C(=O)Nc2ccccc2F)C(c2ccsc2)C2=C(CC(C)(C)CC2=O)N1", "note": "(stereo unspecified)", "values": [{"measurement": "IC50", "value": "> 30 µM (inactive)"}]}, {"smiles": "O=c1[nH]c(=O)n(Cc2ccc(F)cc2)c(O)c1C=NCCN1CCCCC1", "values": [{"measurement": "IC50", "value": "> 30 µM (inactive)"}]}, {"smiles": "COc1cccc(C2C3=C(CC(C)(C)CC3=O)Nc3n[nH]c(C)c32)c1", "note": "(stereo unspecified)", "values": [{"measurement": "IC50", "value": 0.958, "unit": "µM"}]}, {"smiles": "C/C(=N\\O)c1ncc(C(F)(F)F)cc1Cl", "values": [{"measurement": "IC50", "value": "> 30 µM (inactive)"}]}, {"smiles": "Cc1c(C(=O)O)cccc1-n1c(C)cc(/C=N/Nc2ccc([N+](=O)[O-])cn2)c1C", "values": [{"measurement": "IC50", "value": 21.3, "unit": "µM"}]}, {"smiles": "O=[N+]([O-])c1ccc2[nH]c(O)c(N=NC3CS(=O)(=O)CC3O)c2c1", "note": "(stereo unspecified)", "values": [{"measurement": "IC50", "value": 23, "unit": "µM"}]}, {"smiles": "Nc1ncnc2c1ncn2C1OC(CO)C(O)C1O", "note": "(stereo unspecified)", "values": [{"measurement": "IC50", "value": "> 30 µM (inactive)"}]}, {"smiles": "C=CCOC(=O)C1=C(C)Nc2ncnn2C1c1cccs1", "note": "(stereo unspecified)", "values": [{"measurement": "IC50", "value": "> 30 µM (inactive)"}]}, {"smiles": "O=C(O)c1cc(-c2ccc(/C=N/Nc3ccc(Cl)cc3)o2)ccc1Cl", "values": [{"measurement": "IC50", "value": "> 30 µM (inactive)"}]}, {"smiles": "O=c1[nH]c(N/N=C/c2ccccc2)nc2ccccc12", "values": [{"measurement": "IC50", "value": "> 30 µM (inactive)"}]}, {"smiles": "Cc1ccc(C2C3=C(CC(C)(C)CC3=O)Nc3n[nH]c(C)c32)cc1", "note": "(stereo unspecified)", "values": [{"measurement": "IC50", "value": 9.26, "unit": "µM"}]}, {"smiles": "Cc1ccccc1/C=N/Nc1ncnc2nc[nH]c12", "values": [{"measurement": "IC50", "value": 17.1, "unit": "µM"}]}, {"smiles": "COc1ccc(-c2nn(CCC#N)cc2/C=N/O)cc1OC", "values": [{"measurement": "IC50", "value": "> 30 µM (inactive)"}]}, {"smiles": "CSc1nc2c(c(=O)[nH]1)C(c1cccs1)C1=C(CCCC1=O)N2", "note": "(stereo unspecified)", "values": [{"measurement": "IC50", "value": "> 30 µM (inactive)"}]}, {"smiles": "COc1ccc(C2C3=C(CCCC3=O)Nc3n[nH]c(C)c32)cc1OC", "note": "(stereo unspecified)", "values": [{"measurement": "IC50", "value": "> 30 µM (inactive)"}]}, {"smiles": "CC1=C(C(=O)Nc2ccccc2F)C(c2cccs2)C2=C(CCCC2=O)N1", "note": "(stereo unspecified)", "values": [{"measurement": "IC50", "value": "> 30 µM (inactive)"}]}, {"smiles": "CCOc1ccc(/C=N/Nc2ccccn2)cc1OC", "values": [{"measurement": "IC50", "value": "> 30 µM (inactive)"}]}, {"smiles": "Cc1[nH]nc2c1C(c1ccc(F)cc1)C1=C(CC(C)(C)CC1=O)N2", "note": "(stereo unspecified)", "values": [{"measurement": "IC50", "value": 3.93, "unit": "µM"}]}, {"smiles": "CCOC(=O)C1=C(C)Nc2ncnn2C1c1cccnc1", "note": "(stereo unspecified)", "values": [{"measurement": "IC50", "value": "> 30 µM (inactive)"}]}, {"smiles": "COc1cc(/C=N/Nc2ccc(C(F)(F)F)cn2)ccc1O", "values": [{"measurement": "IC50", "value": 10.1, "unit": "µM"}]}]}
